How the values were obtained:
Coagulation factor XIa = Coagulation factor XIa (Homo sapiens (Human), UniProt P03951); assay: Factor XIa Assay; type: biochemical; conditions: human factor XIa 0.04 nM, substrate GPR-AFC, 30 min pre-incubation at 25° C., pH 7.4; read-out: FXIa IC50
Method: (§1) The effectiveness of a compound of the present invention as an inhibitor of Coagulation factor XIa can be determined using a relevant purified serine protease, and an appropriate synthetic substrate. The rate of hydrolysis of the chromogenic or fluorogenic substrate by the relevant serine protease was measured both in the absence and presence of compounds of the present invention. Assays were conducted at rt or at 37° C. […] A decrease in the rate of fluorescence change in the presence of inhibitor is indicative of enzyme inhibition. Such methods are known to one skilled in the art. The results of this assay are expressed as the half-maximal inhibitory concentrations (IC50), or the inhibitory constant, Ki.
Compounds were pre-incubated for 30 min at 25° C. with human (0.04 nM) factor XIa in 50 mM HEPES buffer with 150 mM sodium chloride, 5 mM calcium chloride, 0.1% PEG 8000, pH 7.4. factor XIa enzymatic activity was determined by addition of the substrate glycine-proline-arginine-7-amido-4-trifluoromethylcoumarin (GPR-AFC) and measurement of the fluorescence at 400/505 nm after a 60 min incubation at 25° C. The % inhibition for each data point was calculated from the data and analyzed using the log (inhibitor) vs. response four parameters equation to determine the half-maximal inhibitory concentrations (IC50). The IC50 were converted to equilibrium inhibitory constants (Ki) using the Cheng-Prusoff equation.

Human plasma kallikrein = Human plasma kallikrein (Homo sapiens (Human), UniProt P03952); assay: Plasma Kallikrein Assay; type: biochemical; conditions: purified Human plasma kallikrein 0.5 nM, substrate Acetyl-K-P-R-AFC, pH 7.4; read-out: PKal IC50
Sequence of Human plasma kallikrein (P03952 391-638 limits assumed): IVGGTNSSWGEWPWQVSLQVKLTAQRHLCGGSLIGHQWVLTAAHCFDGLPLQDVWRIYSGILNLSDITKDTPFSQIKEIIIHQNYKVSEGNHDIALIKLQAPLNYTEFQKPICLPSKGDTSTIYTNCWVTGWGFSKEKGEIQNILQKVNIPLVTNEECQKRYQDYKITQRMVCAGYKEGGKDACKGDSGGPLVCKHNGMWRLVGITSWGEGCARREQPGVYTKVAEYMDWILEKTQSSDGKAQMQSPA
Sequence of Human plasma kallikrein (P03952 20-390 partner limits assumed): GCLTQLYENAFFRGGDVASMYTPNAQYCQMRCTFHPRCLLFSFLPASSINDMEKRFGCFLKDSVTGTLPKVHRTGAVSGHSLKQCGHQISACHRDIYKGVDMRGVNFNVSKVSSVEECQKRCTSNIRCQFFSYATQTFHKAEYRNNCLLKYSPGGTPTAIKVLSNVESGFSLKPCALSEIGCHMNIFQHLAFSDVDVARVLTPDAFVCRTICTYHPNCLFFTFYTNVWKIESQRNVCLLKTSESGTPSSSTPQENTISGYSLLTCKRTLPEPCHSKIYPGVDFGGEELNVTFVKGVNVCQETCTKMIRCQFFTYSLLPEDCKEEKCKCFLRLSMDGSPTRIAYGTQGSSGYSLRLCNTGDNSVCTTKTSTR
Method: as §1, with “plasma kallikrein” for “Coagulation factor XIa”
Plasma kallikrein determinations were made in 50 mM HEPES buffer at pH 7.4 containing 150 mM NaCl, 5 mM CaCl2, and 0.1% PEG 8000 (polyethylene glycol; Fisher Scientific). Determinations were made using purified Human plasma kallikrein at a final concentration of 0.5 nM (Enzyme Research Laboratories) and the synthetic substrate, Acetyl-K-P-R-AFC (Sigma #C6608) at a concentration of […].
Activity assays were performed by diluting a stock solution of substrate at least tenfold to a final concentration ≤0.2 Km into a solution containing enzyme or enzyme equilibrated with inhibitor. Times required to achieve equilibration between enzyme and inhibitor were determined in control experiments. The reactions were performed under linear progress curve conditions and fluorescence increase measured at 405 Ex/510 Em nm. Values were converted to percent inhibition of the control reaction (after subtracting 100% Inhibition value). IC50 was determined by inflection point from a four parameter logistic curve fit. Ki was calculated using the Cheng Prusoff equation, Ki=IC50/(1+[S]/Km)).

Sequence of Coagulation factor XIa (P03951 388-625 limits assumed): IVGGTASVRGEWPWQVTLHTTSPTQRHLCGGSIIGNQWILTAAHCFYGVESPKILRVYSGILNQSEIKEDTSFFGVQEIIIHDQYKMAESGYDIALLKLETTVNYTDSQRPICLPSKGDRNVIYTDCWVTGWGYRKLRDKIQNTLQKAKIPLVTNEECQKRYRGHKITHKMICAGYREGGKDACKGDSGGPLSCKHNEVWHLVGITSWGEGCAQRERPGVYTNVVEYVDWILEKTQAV
Sequence of Coagulation factor XIa (P03951 19-387 partner limits assumed): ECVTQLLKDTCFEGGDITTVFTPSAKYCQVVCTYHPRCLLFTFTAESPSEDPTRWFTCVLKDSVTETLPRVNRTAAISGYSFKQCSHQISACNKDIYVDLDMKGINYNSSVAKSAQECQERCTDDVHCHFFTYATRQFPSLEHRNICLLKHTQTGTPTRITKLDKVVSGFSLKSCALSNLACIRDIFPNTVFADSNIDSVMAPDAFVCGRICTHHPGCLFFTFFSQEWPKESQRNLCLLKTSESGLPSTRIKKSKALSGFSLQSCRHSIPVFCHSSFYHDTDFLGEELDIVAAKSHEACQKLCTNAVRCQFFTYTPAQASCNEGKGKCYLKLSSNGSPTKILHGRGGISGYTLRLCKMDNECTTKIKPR

IC50 (Coagulation factor XIa)	IC50 (Human plasma kallikrein)	SMILES
10 µM	0.0256 µM	Cc1cnn(Cc2ccc(CNC(=O)c3cc(N4CC[C@]5(C4)OC(=O)Nc4ccc(Cl)c(F)c45)ncn3)cc2)c1 [Example 19, (S)-6-(6-Chloro-5-fluoro-2-oxo-1,2-dihydrospiro[benzo[d][1,3]oxazine-4,3′-pyrrolidin]-1′-yl)-N-(4-((4-methyl-1H-pyrazol-1-yl)methyl)benzyl)pyrimidine-4-carboxamide]
10 µM	0.0013 µM	Cc1cnn(Cc2ccc(CNC(=O)c3cncc(N4CC[C@]5(C4)OC(=O)Nc4ccc(Cl)c(F)c45)c3)cn2)c1 [Example 20, (S)-5-(6-Chloro-5-fluoro-2-oxo-1,2-dihydrospiro[benzo[d][1,3]oxazine-4,3′-pyrrolidin]-1′-yl)-N-((6-((4-methyl-1H-pyrazol-1-yl)methyl)pyridin-3-yl)methyl)nicotinamide]
10 µM	0.0023 µM	Cc1cnn(Cc2ccc(CNC(=O)c3cncc(N4CC[C@]5(C4)OC(=O)Nc4ccc(Cl)c(F)c45)n3)cn2)c1 [Example 21, (S)-6-(6-Chloro-5-fluoro-2-oxo-1,2-dihydrospiro[benzo[d][1,3]oxazine-4,3′-pyrrolidin]-1′-yl)-N-((6-((4-methyl-1H-pyrazol-1-yl)methyl)pyridin-3-yl)methyl)pyrazine-2-carboxamide]
10 µM	0.0047 µM	Cc1cnn(Cc2ccc(CNC(=O)c3ccnc(N4CC[C@]5(C4)OC(=O)Nc4ccc(Cl)c(F)c45)c3)cc2)c1 [Example 22, (S)-2-(6-Chloro-5-fluoro-2-oxo-1,2-dihydrospiro[benzo[d][1,3]oxazine-4,3′-pyrrolidin]-1′-yl)-N-(4-((4-methyl-1H-pyrazol-1-yl)methyl)benzyl)isonicotinamide]
10 µM	0.0005 µM	Cc1cnn(Cc2ccc(CNC(=O)c3cnnc(N4CC[C@]5(C4)OC(=O)Nc4ccc(Cl)c(F)c45)c3)cc2)c1 [Example 23, (S)-6-(6-Chloro-5-fluoro-2-oxo-1,2-dihydrospiro[benzo[d][1,3]oxazine-4,3′-pyrrolidin]-1′-yl)-N-(4-((4-methyl-1H-pyrazol-1-yl)methyl)benzyl)pyridazine-4-carboxamide]
10 µM	0.0136 µM	Cc1cnn(Cc2ccc(CNC(=O)c3ccnc(N4CC[C@]5(C4)OC(=O)Nc4ccc(Cl)c(F)c45)n3)cc2)c1 [Example 24, (S)-2-(6-Chloro-5-fluoro-2-oxo-1,2-dihydrospiro[benzo[d][1,3]oxazine-4,3′-pyrrolidin]-1′-yl)-N-(4-((4-methyl-1H-pyrazol-1-yl)methyl)benzyl)pyrimidine-4-carboxamide]
10 µM	0.0165 µM	Cc1cnn(Cc2ccc(CNC(=O)c3cc(N4CC[C@]5(C4)OC(=O)Nc4ccc(Cl)c(F)c45)ccn3)cc2)c1 [Example 25, (S)-4-(6-Chloro-5-fluoro-2-oxo-1,2-dihydrospiro[benzo[d][1,3]oxazine-4,3′-pyrrolidin]-1′-yl)-N-(4-((4-methyl-1H-pyrazol-1-yl)methyl)benzyl)picolinamide]
10 µM	0.0031 µM	Cc1cnn(Cc2ccc(CNC(=O)c3cncc(N4CC[C@]5(C4)OC(=O)Nc4ccc(Cl)c(F)c45)c3)cc2)c1 [Example 26, (S)-5-(6-Chloro-5-fluoro-2-oxo-1,2-dihydrospiro[benzo[d][1,3]oxazine-4,3′-pyrrolidin]-1′-yl)-N-(4-((4-methyl-1H-pyrazol-1-yl)methyl)benzyl)nicotinamide]
10 µM	0.0143 µM	COCC1CN(c2ccc(CNC(=O)c3cnnc(N4CC[C@]5(C4)OC(=O)Nc4ccc(Cl)c(F)c45)c3)cn2)C1 [Example 27, (S)-6-(6-Chloro-5-fluoro-2-oxo-1,2-dihydrospiro[benzo[d][1,3]oxazine-4,3′-pyrrolidin]-1′-yl)-N-((6-(3-(methoxymethyl)azetidin-1-yl)pyridin-3-yl)methyl)pyridazine-4-carboxamide]
10 µM	0.0019 µM	CN1CCN(c2ccc(CNC(=O)c3cnnc(N4CC[C@]5(C4)OC(=O)Nc4ccc(Cl)c(F)c45)c3)cn2)CC1 [Example 28, (S)-6-(6-Chloro-5-fluoro-2-oxo-1,2-dihydrospiro[benzo[d][1,3]oxazine-4,3′-pyrrolidin]-1′-yl)-N-((6-(4-methylpiperazin-1-yl)pyridin-3-yl)methyl)pyridazine-4-carboxamide]
10 µM	0.005 µM	O=C1Nc2ccc(Cl)c(F)c2[C@]2(CCN(c3cc(C(=O)NCc4ccc(N5CCOCC5)nc4)cnn3)C2)O1 [Example 29, (S)-6-(6-Chloro-5-fluoro-2-oxo-1,2-dihydrospiro[benzo[d][1,3]oxazine-4,3′-pyrrolidin]-1′-yl)-N-((6-morpholinopyridin-3-yl)methyl)pyridazine-4-carboxamide]
10 µM	0.0209 µM	O=C1Nc2ccc(Cl)c(F)c2[C@]2(CCN(c3cncc(C(=O)NCc4ccc5ccc(=O)oc5c4)n3)C2)O1 [Example 30, (S)-6-(6-Chloro-5-fluoro-2-oxo-1,2-dihydrospiro[benzo[d][1,3]oxazine-4,3′-pyrrolidin]-1′-yl)-N-((2-oxo-2H-chromen-7-yl)methyl)pyrazine-2-carboxamide]
10 µM	0.0086 µM	O=C1Nc2ccc(Cl)c(F)c2[C@]2(CCN(c3cncc(C(=O)NCc4ccc5c(n4)NCCC5)n3)C2)O1 [Example 31, (S)-6-(6-Chloro-5-fluoro-2-oxo-1,2-dihydrospiro[benzo[d][1,3]oxazine-4,3′-pyrrolidin]-1′-yl)-N-((5,6,7,8-tetrahydro-1,8-naphthyridin-2-yl)methyl)pyrazine-2-carboxamide]
10 µM	0.019 µM	Nc1nccc2cc(CNC(=O)c3cncc(N4CC[C@]5(C4)OC(=O)Nc4ccc(Cl)c(F)c45)n3)ccc12 [Example 32, (S)-N-((1-Aminoisoquinolin-6-yl)methyl)-6-(6-chloro-5-fluoro-2-oxo-1,2-dihydrospiro[benzo[d][1,3]oxazine-4,3′-pyrrolidin]-1′-yl)pyrazine-2-carboxamide]
10 µM	0.0254 µM	O=C1Nc2ccc(Cl)c(F)c2[C@]2(CCN(c3cncc(C(=O)NCc4ccc(N5CC(F)C5)nc4)n3)C2)O1 [Example 33, (S)-6-(6-Chloro-5-fluoro-2-oxo-1,2-dihydrospiro[benzo[d][1,3]oxazine-4,3′-pyrrolidin]-1′-yl)-N-((6-(3-fluoroazetidin-1-yl)pyridin-3-yl)methyl)pyrazine-2-carboxamide]
10 µM	0.0054 µM	COCC1CN(c2ccc(CNC(=O)c3cncc(N4CC[C@]5(C4)OC(=O)Nc4ccc(Cl)c(F)c45)n3)cn2)C1 [Example 34, (S)-6-(6-Chloro-5-fluoro-2-oxo-1,2-dihydrospiro[benzo[d][1,3]oxazine-4,3′-pyrrolidin]-1′-yl)-N-((6-(3-(methoxymethyl)azetidin-1-yl)pyridin-3-yl)methyl)pyrazine-2-carboxamide]
10 µM	0.0437 µM	O=C1Nc2ccc(Cl)c(F)c2[C@]2(CCN(c3cncc(C(=O)NCc4ccc(N5CC(O)(C(F)(F)F)C5)nc4)n3)C2)O1 [Example 36, (S)-6-(6-Chloro-5-fluoro-2-oxo-1,2-dihydrospiro[benzo[d][1,3]oxazine-4,3′-pyrrolidin]-1′-yl)-N-((6-(3-hydroxy-3-(trifluoromethyl)azetidin-1-yl)pyridin-3-yl)methyl)pyrazine-2-carboxamide]
